Assay results published in ChEMBL document CHEMBL2413072, “Synthesis and in vitro anticancer studies of novel C-2 arylidene congeners of lantadenes” (2013).

How the values were obtained:
Assay type in all cases: functional
OVCAR-8 [1] = test: Growth inhibition of human OVCAR8 cells by sulforhodamine B assay
UO-31 [2] = test: Growth inhibition of human UO31 cells assessed as cell growth at 10^-8 M by sulforhodamine B assay; settings: read-out: Activity
HOP-62 [3] = test: Growth inhibition of human HOP62 cells assessed as growth inhibition at 10 uM by sulforhodamine B assay; settings: read-out: GI
SF-295 = test: Growth inhibition of human SF295 cells assessed as cell growth at 10^-6 M by sulforhodamine B assay; settings: read-out: Activity
K562 = test: Growth inhibition of human K562 cells assessed as cell growth at 10^-4 M by sulforhodamine B assay; settings: read-out: Activity
SN12C = test: Growth inhibition of human SN12C cells assessed as cell growth at 10 uM by sulforhodamine B assay; settings: read-out: Activity
CAKI-1 [4] = test: Growth inhibition of human CAKI-1 cells assessed as cell growth at 10 uM by sulforhodamine B assay; settings: read-out: Activity
UACC-257 [5] = test: Growth inhibition of human UACC257 cells assessed as growth inhibition at 10 uM by sulforhodamine B assay; settings: read-out: GI
HOP-62 [6] = test: Growth inhibition of human HOP62 cells assessed as cell growth at 10^-6 M by sulforhodamine B assay; settings: read-out: Activity
SK-OV-3 [7] = test: Growth inhibition of human SKOV3 cells assessed as growth inhibition at 10 uM by sulforhodamine B assay; settings: read-out: GI
[8] = Growth inhibition of human Hs 578T cells assessed as cell growth at 10 uM by sulforhodamine B assay; settings: read-out: Activity
U-251 = test: Growth inhibition of human U251 cells assessed as cell growth at 10^-8 M by sulforhodamine B assay; settings: read-out: Activity
SK-MEL-2 = test: Growth inhibition of human SK-MEL-2 cells assessed as cell growth at 10^-8 M by sulforhodamine B assay; settings: read-out: Activity
OVCAR-8 [9] = test: Growth inhibition of human OVCAR8 cells assessed as growth inhibition at 10 uM by sulforhodamine B assay; settings: read-out: GI
OVCAR-4 [10] = test: Growth inhibition of human OVCAR4 cells assessed as growth inhibition at 10 uM by sulforhodamine B assay; settings: read-out: GI
UACC-62 = test: Growth inhibition of human UACC62 cells assessed as cell growth at 10^-7 M by sulforhodamine B assay; settings: read-out: Activity
HT-29 = test: Growth inhibition of human HT-29 cells assessed as growth inhibition at 10 uM by sulforhodamine B assay; settings: read-out: GI
OVCAR-8 [11] = test: Growth inhibition of human OVCAR8 cells assessed as cell growth at 10 uM by sulforhodamine B assay; settings: read-out: Activity
UACC-257 [12] = test: Growth inhibition of human UACC257 cells assessed as cell growth at 10^-6 M by sulforhodamine B assay; settings: read-out: Activity
MDA-MB-231 = test: Growth inhibition of human MDA-MB-231 cells assessed as cell growth at 10^-8 M by sulforhodamine B assay; settings: read-out: Activity
NCI-H522 = test: Growth inhibition of human NCI-H522 cells assessed as cell growth at 10 uM by sulforhodamine B assay; settings: read-out: Activity
RPMI-8226 = test: Growth inhibition of human RPMI8226 cells assessed as cell growth at 10^-6 M by sulforhodamine B assay; settings: read-out: Activity
SNB-75 [13] = test: Growth inhibition of human SNB75 cells assessed as cell growth at 10 uM by sulforhodamine B assay; settings: read-out: Activity
SK-OV-3 [14] = test: Growth inhibition of human SKOV3 cells assessed as cell growth at 10 uM by sulforhodamine B assay; settings: read-out: Activity
SF-268 = test: Growth inhibition of human SF268 cells assessed as cell growth at 10^-7 M by sulforhodamine B assay; settings: read-out: Activity
CAKI-1 [15] = test: Growth inhibition of human CAKI-1 cells assessed as growth inhibition at 10 uM by sulforhodamine B assay; settings: read-out: GI
SR [16] = test: Growth inhibition of human SR cells assessed as growth inhibition at 10 uM by sulforhodamine B assay; settings: read-out: GI
NCI-H23 [17] = test: Growth inhibition of human NCI-H23 cells assessed as growth inhibition at 10 uM by sulforhodamine B assay; settings: read-out: GI
SNB-75 [18] = test: Growth inhibition of human SNB75 cells assessed as growth inhibition at 10 uM by sulforhodamine B assay; settings: read-out: GI
OVCAR-4 [19] = test: Growth inhibition of human OVCAR4 cells assessed as cell growth at 10^-8 M by sulforhodamine B assay; settings: read-out: Activity
SR [20] = test: Growth inhibition of human SR cells assessed as cell growth at 10^-7 M by sulforhodamine B assay; settings: read-out: Activity
BT-549 = test: Growth inhibition of human BT549 cells assessed as cell growth at 10^-8 M by sulforhodamine B assay; settings: read-out: Activity
LOX IMVI = test: Growth inhibition of human LOXIMVI cells assessed as cell growth at 10^-6 M by sulforhodamine B assay; settings: read-out: Activity
UO-31 [21] = test: Growth inhibition of human UO31 cells assessed as cell growth at 10^-4 M by sulforhodamine B assay; settings: read-out: Activity
SK-MEL-28 = test: Growth inhibition of human SK-MEL-28 cells assessed as cell growth at 10^-6 M by sulforhodamine B assay; settings: read-out: Activity
A498 = test: Growth inhibition of human A498 cells assessed as growth inhibition at 10 uM by sulforhodamine B assay; settings: read-out: GI
NCI-H23 [22] = test: Growth inhibition of human NCI-H23 cells assessed as cell growth at 10^-7 M by sulforhodamine B assay; settings: read-out: Activity
HCT-116 = test: Growth inhibition of human HCT116 cells assessed as cell growth at 10 uM by sulforhodamine B assay; settings: read-out: Activity
KM12 = test: Growth inhibition of human KM12 cells assessed as cell growth at 10^-7 M by sulforhodamine B assay; settings: read-out: Activity
TK-10 = test: Growth inhibition of human TK10 cells assessed as cell growth at 10 uM by sulforhodamine B assay; settings: read-out: Activity
MDA-MB-435 [23] = test: Growth inhibition of human MDA-MB-435 cells assessed as cell growth at 10^-6 M by sulforhodamine B assay; settings: read-out: Activity
MDA-MB-435 [24] = test: Growth inhibition of human MDA-MB-435 cells assessed as cell growth at 10^-4 M by sulforhodamine B assay; settings: read-out: Activity
[25] = Growth inhibition of human NCI-ADR-RES cells assessed as cell growth at 10 uM by sulforhodamine B assay; settings: read-out: Activity
HOP-92 = test: Growth inhibition of human HOP92 cells assessed as cell growth at 10^-6 M by sulforhodamine B assay; settings: read-out: Activity
[26] = Growth inhibition of human NCI-ADR-RES cells assessed as cell growth at 10^-4 M by sulforhodamine B assay; settings: read-out: Activity
HOP-62 [27] = test: Growth inhibition of human HOP62 cells assessed as cell growth at 10 uM by sulforhodamine B assay; settings: read-out: Activity
SR [28] = test: Growth inhibition of human SR cells assessed as cell growth at 10^-4 M by sulforhodamine B assay; settings: read-out: Activity
Malme-3M = test: Growth inhibition of human MALME-3M cells assessed as cell growth at 10^-6 M by sulforhodamine B assay; settings: read-out: Activity

## CC(C)=CC(=O)O[C@@H]1CC(C)(C)C[C@H]2C3=CC[C@@H]4[C@@]5(C)CCC(=O)C(C)(C)[C@@H]5CC[C@@]4(C)[C@]3(C)CC[C@@]12C(=O)O
OVCAR-8 [1]; read-out: GI50
  GI50: 3.81 µM
OVCAR-8 [1]; read-out: LC50 (the source's name)
  CC50: > 100 µM
OVCAR-8 [1]; read-out: TGI
  TGI: > 100 µM
OVCAR-8 [1]; read-out: pGI50 (converted)
  GI50: 3.8 µM
OVCAR-8 [1]; read-out: pLC50 (the source's name) (converted)
  CC50: > 100 µM
OVCAR-8 [1]; read-out: pTGI (converted)
  TGI: > 100 µM
UO-31 [2]
  growth at 0.01 µM: 88%
HOP-62 [3]
  inhibition of growth at 10 µM: 39.8%
SF-295
  growth at 1 µM: 63%
K562
  growth at 100 µM: 15%
SN12C
  growth at 10 µM: 42.6%
CAKI-1 [4]
  growth at 10 µM: 46.8%
UACC-257 [5]
  inhibition of growth at 10 µM: 26.1%
HOP-62 [6]
  growth at 1 µM: 100%
SK-OV-3 [7]
  inhibition of growth at 10 µM: < 10%
[8]
  growth at 10 µM: 79.6%
U-251
  growth at 0.01 µM: 92%
SK-MEL-2
  growth at 0.01 µM: 94%
OVCAR-8 [9]
  inhibition of growth at 10 µM: 44.9%
OVCAR-4 [10]
  inhibition of growth at 10 µM: 28.7%
UACC-62
  growth at 0.1 µM: 97%
HT-29
  inhibition of growth at 10 µM: 42.7%
OVCAR-8 [11]
  growth at 10 µM: 55.1%
UACC-257 [12]
  growth at 1 µM: 83%
MDA-MB-231
  growth at 0.01 µM: 96%
NCI-H522
  growth at 10 µM: 57.3%
RPMI-8226
  growth at 1 µM: 58%
SNB-75 [13]
  growth at 10 µM: 70%
SK-OV-3 [14]
  growth at 10 µM: 95.4%
SF-268
  growth at 0.1 µM: 94%
CAKI-1 [15]
  inhibition of growth at 10 µM: 53.2%
SR [16]
  inhibition of growth at 10 µM: 47.9%
NCI-H23 [17]
  inhibition of growth at 10 µM: 46.6%
SNB-75 [18]
  inhibition of growth at 10 µM: 30%
OVCAR-4 [19]
  growth at 0.01 µM: 99%
SR [20]
  growth at 0.1 µM: 99%
BT-549
  growth at 0.01 µM: 114%
LOX IMVI
  growth at 1 µM: 87%
UO-31 [21]
  growth at 100 µM: -13%
SK-MEL-28
  growth at 1 µM: 103%
A498
  inhibition of growth at 10 µM: < 10%
NCI-H23 [22]
  growth at 0.1 µM: 90%
HCT-116
  growth at 10 µM: 26.6%
KM12
  growth at 0.1 µM: 85%
TK-10
  growth at 10 µM: 78.1%
MDA-MB-435 [23]
  growth at 1 µM: 92%
MDA-MB-435 [24]
  growth at 100 µM: 1%
[25]
  growth at 10 µM: 60%
HOP-92
  growth at 1 µM: 69%
[26]
  growth at 100 µM: 14%
HOP-62 [27]
  growth at 10 µM: 60.2%
SR [28]
  growth at 100 µM: -15%
Malme-3M
  growth at 1 µM: 91%
